Earlier results on two compounds are cited in US6576223B2, “Insect repellent” (Karl Engelhard Fabrik Pharm Praparate GmbH & Co. KG., priority 1997, dated 2003).

For data set [1] the following is noted: concentrations of DEET exceeding 30%; monograph Diethyltoluamid, Bundesanzeiger No. 137.

In the case of polyethylene glycol 400 [PEG-400], in the data set with insects (adjuvant alone, EP 0 090 288), the “repellent effect of the adjuvant itself” value is on record as “no repellent effect”.
In the case of `CCN(CC)C(=O)c1cccc(C)c1` [DEET, N,N-diethyl-m-toluamide], the period of effectiveness result with insects (DEET as alcohol solution applied to the skin, known agents) is “about 5 hours”. For the same compound, the side effects entry in data set [1] is “blistering, ulceration, and necroses can occur”.
